Here are results for 6 compounds from patent US12104143B2, “Compositions comprising cellulase with a nonionic surfactant and a quaternary ammonium compound” (ECOLAB USA INC., priority 2018, dated 2024).

The test system of series [1] is dark eyed fruit flies (DEFF). As to the kind of experiment: Adult fly emergence test, dark eyed fruit flies (DEFF). Conditions: 1.8% sodium citrate, pH about 4.5; 1% active Bardac 205M, 0.5% Cellulase B or 2% Tween 20 (Test Comp. C, B, A). The series is classed as in vivo. The method, then:
Tests were performed to assess the cleaning compositions' effectiveness against insects. Small flies, which are common near clogged drains for beverage towers were used for these tests. Carolina Biological Formula 2-24 Instant Drosophila Medium was mixed with water in equal parts liquid to media by volume. A small pinch of active yeast was also added. The media was allowed to sit for two days before the start of the test, allowing the yeast time to ferment and ensure there will be enough food available for fly larvae when introduced in the media. Ten larvae of each fly species are placed into the fruit fly vials containing media two days after starting the media. The age of the larvae varies, but the majority of the larvae in each vial were mid instars larvae. Mature larvae were avoided to prevent pupation before the product is added. Each treatment had 5 replicates, for a total of 50 larvae of each species per treatment. Larvae were collected from the media of existing fly rearing containers. Emergence of adult flies was recorded at one week, two weeks, and three weeks to determine how many of the […] larvae had completed development and emerged as adults. The test was maintained at 80° F. and ambient humidity. Tween 20 was tested as an exemplary nonionic surfactant. DRAIN EASE FLOW from Novozymes was tested as an exemplary enzyme composition. […]

For a further series, the system named is cellulase activity. As to the kind of experiment: Shelf life stability by enzyme activity assay, incubated at 37° C. over 8 weeks (Examples 8-10). The series is classed as physicochemical. Conditions: for remaining cellulase activity: 4 weeks at 37° C. The method, then:
The impact of pH on shelf life stability was examined. […] The compositions were adjusted to a pH of 4.00, 4.25, and 4.50. Enzyme stability was assessed by an activity assay.
The compositions were adjusted to a pH of 4.25. Two control compositions were also prepared, one without a surfactant and one with the anionic surfactant, […] (SLS), as a negative control. Enzyme stability was assessed by an activity assay. […] The control containing no surfactant approached 0% remaining activity after the 8-week period.
Different stabilizers—glycerol and PEG 200—were tested to assess their effect on shelf life stability of formulations including a quaternary amine. […] The compositions were adjusted to a pH of 4.25. Enzyme stability was assessed by an activity enzyme. A control composition was also prepared having no stabilizer.

A further series relates to DRAIN EASE FLOW activity. As to the kind of experiment: Enzyme stability: retained DRAIN EASE FLOW activity in degrading a sugar snake after incubation at 37° C. (Example 6). The series is classed as physicochemical. Conditions: 20% stabilizer, 1.0% active Bardac 205M, pH about 4.5. As to the method: Enzyme stability was tested in cleaning compositions prepared with differing stabilizers. […] The effect of pH on stability was also assessed by testing compositions at a pH of 4.5 and 5.5. […] Enzyme stability was again assessed by an activity assay. […] This increased stability is even more pronounced when formulated with 1% active Bardac […].

The nature of series [2]: Cellulase catalyzed hydrolysis of bacterial cellulose (sugar snake degradation) with stabilizers (Example 7). Conditions: 10% stabilizer; 0.5 wt. % DRAIN EASE FLOW, 2 wt. % Tween 20, 0.1 wt. % Bardac 205M, pH about 4.0; 20 mL/g, 2 hours. The series is classed as biochemical. The method, then: The stabilizers tested were PEG 200, Glycerol, Propylene Glycol, and Sucrose. A composition was also prepared without a stabilizer. All the compositions were prepared in water at a pH of about 4.0. A piece of sugar snake weighing about 5 grams was used to screen enzyme performance. The chemistry was dosed at 20 mL/g sugar snake and incubated for 2 hours. The relative enzyme performance was determined at each concentration by comparing the performance to control formulations lacking stabilizer. The results are provided in FIG. 11 where 40 indicates 40% degradation.

As for `CCCCCCCCCCCC(=O)OCCOCCOCCOCCOCCOCCOCCOCCOCCOCCOCCOCCOCCOCCOCCOCCOCCOCCOCCOCCOCC(OCCOCCOCCOCCOCCOCCOCCOCCOCCOCCOCCOCCOCCOCCOCCOCCOCCOCCOCCOCCO)C1OCC(OCCOCCOCCOCCOCCOCCOCCOCCOCCOCCOCCOCCOCCOCCOCCOCCOCCOCCOCCOCCO)C1OCCOCCOCCOCCOCCOCCOCCOCCOCCOCCOCCOCCOCCOCCOCCOCCOCCOCCOCCOCCO` (stereo not drawn) [Tween 20, polyethylene glycol sorbitan monolaurate], the “adult DEFF emergence relative to the water and buffer only controls” value in series [1] was “not statistically significant”. Further, the “residual activity after 8 weeks” value in the series on cellulase activity (2 wt. % surfactant (or none), 0.2 wt. % Bardac 205M, 10 wt. % PEG 200, 0.5 wt. % DRAIN EASE FLOW, pH 4.25, 37° C.) is listed as 55%. For the same compound, the “shelf stability ranking among surfactants” value in the series with cellulase activity (2 wt. % surfactant, 0.2 wt. % Bardac 205M, 10 wt. % PEG 200, pH 4.25, 37° C., 8 weeks) is listed as “best stability”.
In the case of `OCC(O)CO` [glycerol], the “enzyme stability relative to control formulations lacking stabilizer” value in the series on DRAIN EASE FLOW activity is “enhanced stability”. The remaining cellulase activity in the series on cellulase activity (10% stabilizer, both quaternary amine concentrations (175 ppm and 1000 ppm), pH 4.25) is listed as greater than 95%. Moreover, in the series with cellulase activity (10 wt. % stabilizer or none, 175 ppm or 1000 ppm Bardac 205M, pH 4.25, 37° C.), the “shelf life stability ranking among stabilizers” value is “best stability”.
Turning to `CC(O)CO` (stereo not drawn) [propylene glycol], in the series with DRAIN EASE FLOW activity, the “enzyme stability relative to control formulations lacking stabilizer” value is recorded as “did not enhance stability”.
Regarding `OC[C@H]1O[C@@](CO)(O[C@H]2O[C@H](CO)[C@@H](O)[C@H](O)[C@H]2O)[C@@H](O)[C@@H]1O` [sucrose], in series [2], the “sugar snake degradation performance versus control formulations lacking stabilizer” value is reported as “did not statistically impact performance”.
For the compound polyethylene glycol 200 [PEG 200], the “enzyme stability relative to control formulations lacking stabilizer” value in the series on DRAIN EASE FLOW activity is listed as “enhanced stability”. This compound showed a remaining cellulase activity with cellulase activity (10% stabilizer, 175 ppm quaternary amine, pH 4.25) greater than 40%. The shelf life stability entry in the series on cellulase activity (10% stabilizer, 1000 ppm quaternary, pH 4.25, 37° C.) is listed as “enhanced stability”.
For polyethylene glycol 400 [PEG 400], the “enzyme stability relative to control formulations lacking stabilizer” value with DRAIN EASE FLOW activity was “did not enhance stability”.
